Measurements: patent US20100104644A1, “Compositions and Methods for Treating or Preventing Ophthalmic Disease” (University of Florida Research Foundation, Inc., priority 2006, published 2010)
Entries after “also recorded” stand apart in the source; their conditions may differ.

Experiments:
[1] = system: purified wild-type (WT) opsin; assay: Opsin regeneration: pigment formation of purified WT opsin with 11-cis-retinal in the presence of compound; type: biochemical; details: for inhibition of pigment formation / binding of 11-cis-retinal to opsin: in vitro
[2] = system: P23H opsin; assay: P23H yield in stable cells expressing opsin treated with compound; type: cell-based
Procedure: Stable cell lines expressing opsin protein were generated using the Flp-In T-Rex system. The stable cells were grown in DMEM high glucose media supplemented with 10% (v/v) fetal bovine serum, antibiotic/antimycotic solution, […] blasticidin and hygromycin at 37° C. in presence of 5% CO2. For all the experiments the cells were allowed to reach confluence and were induced to produce opsin with 1 μg/ml tetracycline after change of media and then compounds were added. The plates were incubated for 48 hours after which the cells were harvested.
Proteins were separated on SDS-PAGE gels and western blotted as described in Noorwez et al. (2004).

[3] = system: purified wt (wild-type) opsin; assay: 500 nm absorbing pigment formation on addition of compound alone to purified opsin; type: biochemical; details: compound added to purified WT opsin without 11-cis-retinal

Q: With `CC(=O)c1c(C)n[nH]c1C` [Compound 1, 1-(3,5-dimethyl-1H-pyrazol-4-yl)ethanone] as the compound, how does the “inhibition of pigment formation of WT opsin with 11-cis-retinal” value ([1]; 2 mM and 5 mM concentrations) read?
A: inhibited

Q: And the “inhibition of pigment formation / binding of 11-cis-retinal to opsin” value ([1]; listed as SN 10011)?
A: inhibits the binding of 11-cis-retinal to opsin in vitro

Q: And the “inhibition of pigment formation / binding of 11-cis-retinal to opsin” value ([1]; listed as SN10011)?
A: reversibly inhibits binding of 11-cis-retinal; also recorded: significant effect on inhibition of pigment formation

Q: What about the “% Increase in P23H Yield” value ([2]; Table 1) of the same compound?
A: 31%

Q: And the “% Increase in P23H Yield” value ([2]; Table 2, with spread)?
A: 30 ± 5%

Q: What about the “formation of 500 nm absorbing pigment by the compound with opsin” value ([3]; listed as SN10011) of the same compound?
A: No pigment was formed; also recorded: no 500 nm absorbing pigment was generated

Q: How did the “% Increase in P23H Yield” value ([2]; Table 1) turn out when `N#Cc1cn(Cc2ccco2)c(=O)[nH]c1=O` [Compound 2, 1-furan-2-ylmethyl-2,4-dioxo-1,2,3,4-tetrahydro-pyrimidine-5-carbonitrile] was run?
A: 43%

Q: What about the “% Increase in P23H Yield” value ([2]; Table 2, with spread) of the same compound?
A: 40 ± 7%

Q: Which results are given for `O=[PH](O)c1ccccc1` [Compound 3, phenyl-phosphinic acid]?
A: % Increase in P23H Yield ([2]; Table 1): 32%; % Increase in P23H Yield ([2]; Table 2, with spread): 40 ± 3%

Q: With `Cc1cc([N+](=O)[O-])ccn1` [Compound 4, 2-methyl-4-nitro-pyridine] as the compound, how does the “% Increase in P23H Yield” value ([2]; Table 1) read?
A: 24%

Q: And the “% Increase in P23H Yield” value ([2]; Table 2, with spread)?
A: 25 ± 8%

Q: Which results are given for `O=C1NC(CCO)C(=O)NC1CCO` (stereo not shown) [Compound 5, 3,6-bis-(2-hydroxyethy)-piperazine-2,5-dione]?
A: % Increase in P23H Yield ([2]; Table 1): 15%; % Increase in P23H Yield ([2]; Table 2, with spread): 30 ± 10%

Q: What does the source list for `CC(C)N(CC#N)C(C)C` [Compound 6, diisopropylaminoacetonitrile]?
A: % Increase in P23H Yield ([2]; Table 1): 28%; % Increase in P23H Yield ([2]; Table 2, with spread): 25 ± 3%

Q: For `N#Cc1ccc2c(c1)OCO2` [Compound 27009, 3,4-Methylenedioxybenzonitrile], which “% Increase in P23H Yield” value ([2]; Table 2, with spread) is on record?
A: 20 ± 5%

Q: `Cn1cc(C(N)=O)ccc1=N` [Compound 66688, 6-imino-1-methyl-1,6-dihydro-3-pyridinecarboxamine] was tested. Which “% Increase in P23H Yield” value ([2]; Table 2, with spread) did it give?
A: 40 ± 9%

Q: Which “% Increase in P23H Yield” value ([2]; Table 2, with spread) does the source give for `Nn1nnc2ccccc21` [Compound 114498, 1H-1,2,3-benzotriazol-1-amine] here?
A: 30 ± 6%

Q: `Oc1ccccc1C=Nn1cnnc1` [Compound 121968, 4-Salicylideneamino-1,2,4-triazol] was tested. Which “% Increase in P23H Yield” value ([2]; Table 2, with spread) did it give?
A: 29 ± 5%

Q: Which “inhibition of pigment formation / binding of 11-cis-retinal to opsin” value [1] does the source give for `CC(=O)/C=C/C1=C(C)CCCC1(C)C` [β-ionone, reference compound] here?
A: inhibit binding of retinal to the site; also recorded: inhibited opsin regeneration in a dose dependent manner

Q: What about the “formation of 500 nm absorbing pigment by the compound with opsin” value [3] of the same compound?
A: does not form a light absorbing pigment with opsin; also recorded: does not itself form a 500 nm absorbing pigment with opsin; also recorded: no 500 nm absorbing pigment was formed
